# From article PMC7023430, “4-Aminobenzoic Acid Derivatives: Converting Folate Precursor to Antimicrobial and Cytotoxic Agents” (Biomolecules, 2019)
# Where two headings read alike, the source gives them in different places.
# Columns and labels:
# [1] = test system: Trichophyton interdigitale 445; test: Antifungal microdilution broth method, T. interdigitale; format: cell-based
# Summary of the method: (§1)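 Panel covers five yeasts and three filamentous fungi tested by a slightly modified EUCAST microdilution protocol. Growth medium is glucose-supplemented (2%) RPMI-1640 with L-glutamine at pH 7.0 (MOPS). Endpoints are judged visually from duplicate runs.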
# [2] = test system: Candida krusei E28; test: Antifungal microdilution broth method, C. krusei; format: cell-based; conditions: Pichia kudriavzevii
# Summary of the method: as §1
# [3] = test system: Staphylococcus epidermidis H 6966/08; test: Antibacterial microdilution broth method, S. epidermidis; format: cell-based; conditions: Staphylococcus epidermidis, H6966/08
# [4] = test system: Enterococcus faecalis ATCC 29212, CCM 4224; test: Antibacterial microdilution broth method, E. faecalis; format: cell-based; conditions: Enterococcus faecalis
# [5] = test system: ESBL-positive Klebsiella pneumoniae J 14368/08
# [6] = test system: Klebsiella pneumoniae D 11750/08; test: Antibacterial microdilution broth method, K. pneumoniae; conditions: K. pneumoniae D 11750/08; for MIC KP 24 h: 24 h incubation; for MIC KP 48 h: 48 h incubation
# [7] = test system: Candida tropicalis 156; test: Antifungal microdilution broth method, C. tropicalis; format: cell-based
# Summary of the method: as §1
# [8] = test system: Trichosporon asahii 1188; test: Antifungal microdilution broth method, T. asahii; format: cell-based
# Summary of the method: as §1
# [9] = test system: Aspergillus fumigatus 231; test: Antifungal microdilution broth method, A. fumigatus; format: cell-based
# Summary of the method: as §1
# [10] = test system: Mycobacterium tuberculosis H37Rv (331/88); test: Antimycobacterial micromethod in Šula's medium, M. tuberculosis; format: cell-based
# [11] = test system: M. kansasii 6509/96 (clinical isolate); test: Antimycobacterial micromethod in Šula's medium, M. kansasii 6509/96; format: cell-based; conditions: Mycobacterium kansasii
# [12] = test system: Escherichia coli ATCC 25922, CCM 3954; test: Antibacterial microdilution broth method, E. coli; format: cell-based; conditions: Escherichia coli
# [13] = test system: methicillin-resistant Staphylococcus aureus ATCC 43300, CCM 4750 (MRSA); test: Antibacterial microdilution broth method, MRSA; format: cell-based; conditions: Staphylococcus aureus
# [14] = test system: Mycobacterium avium 330/88; test: Antimycobacterial micromethod in Šula's medium, M. avium; format: cell-based
# [15] = test system: Mycobacterium kansasii 235/80; test: Antimycobacterial micromethod in Šula's medium, M. kansasii 235/80; format: cell-based
# [16] = test system: Lichtheimia corymbifera 272; test: Antifungal microdilution broth method, L. corymbifera; format: cell-based
# Summary of the method: as §1
# [17] = S. epidermidis, 24 h incubation, read-out: MIC SE 24 h
# [18] = S. epidermidis, 48 h incubation, read-out: MIC SE 48 h
# [19] = 24 h incubation, read-out: MIC EF 24 h
# [20] = 48 h incubation, read-out: MIC EF 48 h
# [21] = 336 h, 14 days incubation at 37 °C, read-out: MIC Mtb. 331/88 14 d
# [22] = 504 h, 21 days incubation at 37 °C, read-out: MIC Mtb. 331/88 21 d
# [23] = 168 h, 7 days incubation at 37 °C, read-out: MIC M. kansasii 6509/96 7 d
# [24] = 336 h, 14 days incubation at 37 °C, read-out: MIC M. kansasii 6509/96 14 d
# [25] = 504 h, 21 days incubation at 37 °C, read-out: MIC M. kansasii 6509/96 21 d
# [26] = 24 h incubation, read-out: MIC EC 24 h
# [27] = 48 h incubation, read-out: MIC EC 48 h
# [28] = 24 h incubation, read-out: MIC MRSA 24 h
# [29] = 48 h incubation, read-out: MIC MRSA 48 h
# [30] = 330/88, 336 h, 14 days incubation at 37 °C, read-out: MIC M. avium 330/88 14 d
# [31] = 330/88, 504 h, 21 days incubation at 37 °C, read-out: MIC M. avium 330/88 21 d
# [32] = 235/80, 168 h, 7 days incubation at 37 °C, read-out: MIC M. kansasii 235/80 7 d
# [33] = 235/80, 336 h, 14 days incubation at 37 °C, read-out: MIC M. kansasii 235/80 14 d
# [34] = 235/80, 504 h, 21 days incubation at 37 °C, read-out: MIC M. kansasii 235/80 21 d
compound,measurement,setting,value
"O=C(O)c1ccc(N=Cc2cccc(Cl)c2O)cc1 [1m, 4-[(3-Chloro-2-hydroxybenzylidene)amino]benzoic acid]",MIC,"[1]; 72 h, read-out: MIC TI 72 h",125 µM
same,MIC,"[1]; 120 h, read-out: MIC TI 120 h",125 µM
same,MIC,"[2]; 24 h, read-out: MIC CK 24 h",250 µM
same,MIC,"[2]; 48 h, read-out: MIC CK 48 h",250 µM
same,MIC,[3]; [17],500 µM
same,MIC,[3]; [18],500 µM
same,MIC,"[3]; time not stated, read-out: MIC, S. epidermidis",≥ 250 µM
same,MIC,[4]; [19],> 500 µM
same,MIC,[4]; [20],> 500 µM
same,MIC KP-E 24 h,[5],>500 µM
same,MIC KP-E 48 h,[5],>500 µM
same,MIC KP 24 h,[6],>500 µM
same,MIC KP 48 h,[6],>500 µM
same,MIC,"[7]; 24 h, read-out: MIC CT 24 h",62.5 µM
same,MIC,"[7]; 48 h, read-out: MIC CT 48 h",62.5 µM
same,MIC,"[8]; 24 h, read-out: MIC TA 24 h",125 µM
same,MIC,"[8]; 48 h, read-out: MIC TA 48 h",125 µM
same,MIC,"[9]; 24 h, read-out: MIC AF 24 h",250 µM
same,MIC,"[9]; 48 h, read-out: MIC AF 48 h",250 µM
same,MIC,[10]; [21],500 µM
same,MIC,[10]; [22],500 µM
same,MIC,[11]; [23],250 µM
same,MIC,[11]; [24],500 µM
same,MIC,[11]; [25],500 µM
same,MIC,[12]; [26],> 500 µM
same,MIC,[12]; [27],> 500 µM
same,MIC,[13]; [28],> 500 µM
same,MIC,[13]; [29],> 500 µM
same,MIC,[14]; [30],1000 µM
same,MIC,[14]; [31],1000 µM
same,MIC,[15]; [32],500 µM
same,MIC,[15]; [33],500 µM
same,MIC,[15]; [34],500 µM
same,MIC,"[16]; 24 h, read-out: MIC LC 24 h",500 µM
same,MIC,"[16]; 48 h, read-out: MIC LC 48 h",500 µM
"O=C(O)c1ccc(N=Cc2cc(Cl)cc(Cl)c2O)cc1 [1n, 4-[(3,5-Dichloro-2-hydroxybenzylidene)amino]benzoic acid]",MIC,"[1]; 72 h, read-out: MIC TI 72 h",250 µM
same,MIC,"[1]; 120 h, read-out: MIC TI 120 h",250 µM
same,MIC,"[2]; 24 h, read-out: MIC CK 24 h",125 µM
same,MIC,"[2]; 48 h, read-out: MIC CK 48 h",125 µM
same,MIC,[3]; [17],250 µM
same,MIC,[3]; [18],250 µM
same,MIC,[4]; [19],> 500 µM
same,MIC,[4]; [20],> 500 µM
same,MIC KP-E 24 h,[5],>500 µM
same,MIC KP-E 48 h,[5],>500 µM
same,MIC KP 24 h,[6],>500 µM
same,MIC KP 48 h,[6],>500 µM
same,MIC,"[7]; 24 h, read-out: MIC CT 24 h",250 µM
same,MIC,"[7]; 48 h, read-out: MIC CT 48 h",250 µM
same,MIC,"[8]; 24 h, read-out: MIC TA 24 h",125 µM
same,MIC,"[8]; 48 h, read-out: MIC TA 48 h",125 µM
same,MIC,"[9]; 24 h, read-out: MIC AF 24 h",500 µM
same,MIC,"[9]; 48 h, read-out: MIC AF 48 h",500 µM
same,MIC,[10]; [21],500 µM
same,MIC,[10]; [22],500 µM
same,MIC,[11]; [23],250 µM
same,MIC,[11]; [24],500 µM
same,MIC,[11]; [25],500 µM
same,MIC,[12]; [26],> 500 µM
same,MIC,[12]; [27],> 500 µM
same,MIC,[13]; [28],250 µM
same,MIC,[13]; [29],250 µM
same,MIC,[14]; [30],1000 µM
same,MIC,[14]; [31],1000 µM
same,MIC,[15]; [32],500 µM
same,MIC,[15]; [33],500 µM
same,MIC,[15]; [34],500 µM
same,MIC,"[16]; 24 h, read-out: MIC LC 24 h",500 µM
same,MIC,"[16]; 48 h, read-out: MIC LC 48 h",500 µM
"O=C(O)c1ccc(N=Cc2cc(Cl)cc(Br)c2O)cc1 [1o, 4-[(3-Bromo-5-chloro-2-hydroxybenzylidene)amino]benzoic acid]",MIC,"[1]; 72 h, read-out: MIC TI 72 h",62.5 µM
same,MIC,"[1]; 120 h, read-out: MIC TI 120 h",62.5 µM
same,MIC,"[2]; 24 h, read-out: MIC CK 24 h",62.5 µM
same,MIC,"[2]; 48 h, read-out: MIC CK 48 h",62.5 µM
same,MIC,[3]; [17],15.6 µM
same,MIC,[3]; [18],31.2 µM
same,MIC,[4]; [19],62.5 µM
same,MIC,[4]; [20],62.5 µM
same,MIC KP-E 24 h,[5],500 µM
same,MIC KP-E 48 h,[5],500 µM
same,MIC KP 24 h,[6],500 µM
same,MIC KP 48 h,[6],500 µM
same,MIC,"[7]; 24 h, read-out: MIC CT 24 h",62.5 µM
same,MIC,"[7]; 48 h, read-out: MIC CT 48 h",62.5 µM
same,MIC,"[8]; 24 h, read-out: MIC TA 24 h",31.2 µM
same,MIC,"[8]; 48 h, read-out: MIC TA 48 h",31.2 µM
same,MIC,"[9]; 24 h, read-out: MIC AF 24 h",250 µM
same,MIC,"[9]; 48 h, read-out: MIC AF 48 h",250 µM
same,MIC,[10]; [21],250 µM
same,MIC,[10]; [22],500 µM
same,MIC,[11]; [23],500 µM
same,MIC,[11]; [24],500 µM
same,MIC,[11]; [25],500 µM
same,MIC,[12]; [26],500 µM
same,MIC,[12]; [27],500 µM
same,MIC,[13]; [28],31.2 µM
same,MIC,[13]; [29],31.2 µM
same,MIC,[14]; [30],500 µM
same,MIC,[14]; [31],500 µM
same,MIC,[15]; [32],250 µM
same,MIC,[15]; [33],500 µM
same,MIC,[15]; [34],500 µM
same,MIC,"[16]; 24 h, read-out: MIC LC 24 h",500 µM
same,MIC,"[16]; 48 h, read-out: MIC LC 48 h",500 µM
"O=C(O)c1ccc(N=Cc2cc(Cl)cc(I)c2O)cc1 [1p, 4-[(5-Chloro-2-hydroxy-3-iodobenzylidene)amino]benzoic acid]",MIC,"[1]; 72 h, read-out: MIC TI 72 h",7.81 µM
same,MIC,"[1]; 120 h, read-out: MIC TI 120 h",7.81 µM
same,MIC,"[2]; 24 h, read-out: MIC CK 24 h",15.6 µM
same,MIC,"[2]; 48 h, read-out: MIC CK 48 h",15.6 µM
same,MIC,[3]; [17],31.2 µM
same,MIC,[3]; [18],31.2 µM
same,MIC,[4]; [19],62.5 µM
same,MIC,[4]; [20],62.5 µM
same,MIC KP-E 24 h,[5],125 µM
same,MIC KP-E 48 h,[5],125 µM
same,MIC KP 24 h,[6],125 µM
same,MIC KP 48 h,[6],125 µM
same,MIC,"[7]; 24 h, read-out: MIC CT 24 h",31.2 µM
same,MIC,"[7]; 48 h, read-out: MIC CT 48 h",31.2 µM
same,MIC,"[8]; 24 h, read-out: MIC TA 24 h",7.81 µM
same,MIC,"[8]; 48 h, read-out: MIC TA 48 h",7.81 µM
same,MIC,"[9]; 24 h, read-out: MIC AF 24 h",125 µM
same,MIC,"[9]; 48 h, read-out: MIC AF 48 h",125 µM
same,MIC,[10]; [21],250 µM
same,MIC,[10]; [22],250 µM
same,MIC,[11]; [23],250 µM
same,MIC,[11]; [24],250 µM
same,MIC,[11]; [25],500 µM
same,MIC,[12]; [26],62.5 µM
same,MIC,[12]; [27],62.5 µM
same,MIC,[13]; [28],15.6 µM
same,MIC,[13]; [29],15.6 µM
same,MIC,[14]; [30],500 µM
same,MIC,[14]; [31],1000 µM
same,MIC,[15]; [32],250 µM
same,MIC,[15]; [33],500 µM
same,MIC,[15]; [34],500 µM
same,MIC,"[16]; 24 h, read-out: MIC LC 24 h",250 µM
same,MIC,"[16]; 48 h, read-out: MIC LC 48 h",250 µM
